Measured values reported in article PMC7894426, “Influence of verapamil on the pharmacokinetics of rotundic acid in rats and its potential mechanism” (Pharmaceutical Biology, 2021).
Read-outs that look alike come from different tables or passages of the source. Values belong to the molecule of their own block, whether it stands above or below them.

Key:
[1] = rats; ref Wang et al. [1994]; cited from earlier work
P-gp [2] = experiment: Bidirectional transport across Caco-2 cell monolayer; format: in vitro ADME, human; details: human, Caco-2, rhodamine-123 10 µM
Protocol: (§1) The qualified monolayers were used for transport studies. […] Each experiment was carried out in triplicate.

P-gp [3] = target: P-gp (Homo sapiens, UniProt P08183); experiment: Bidirectional transport across MDCKII-MDR1 cell monolayers (P-gp substrate assessment)
Sequence of P-gp (Homo sapiens, UniProt P08183) (P08183 whole entry): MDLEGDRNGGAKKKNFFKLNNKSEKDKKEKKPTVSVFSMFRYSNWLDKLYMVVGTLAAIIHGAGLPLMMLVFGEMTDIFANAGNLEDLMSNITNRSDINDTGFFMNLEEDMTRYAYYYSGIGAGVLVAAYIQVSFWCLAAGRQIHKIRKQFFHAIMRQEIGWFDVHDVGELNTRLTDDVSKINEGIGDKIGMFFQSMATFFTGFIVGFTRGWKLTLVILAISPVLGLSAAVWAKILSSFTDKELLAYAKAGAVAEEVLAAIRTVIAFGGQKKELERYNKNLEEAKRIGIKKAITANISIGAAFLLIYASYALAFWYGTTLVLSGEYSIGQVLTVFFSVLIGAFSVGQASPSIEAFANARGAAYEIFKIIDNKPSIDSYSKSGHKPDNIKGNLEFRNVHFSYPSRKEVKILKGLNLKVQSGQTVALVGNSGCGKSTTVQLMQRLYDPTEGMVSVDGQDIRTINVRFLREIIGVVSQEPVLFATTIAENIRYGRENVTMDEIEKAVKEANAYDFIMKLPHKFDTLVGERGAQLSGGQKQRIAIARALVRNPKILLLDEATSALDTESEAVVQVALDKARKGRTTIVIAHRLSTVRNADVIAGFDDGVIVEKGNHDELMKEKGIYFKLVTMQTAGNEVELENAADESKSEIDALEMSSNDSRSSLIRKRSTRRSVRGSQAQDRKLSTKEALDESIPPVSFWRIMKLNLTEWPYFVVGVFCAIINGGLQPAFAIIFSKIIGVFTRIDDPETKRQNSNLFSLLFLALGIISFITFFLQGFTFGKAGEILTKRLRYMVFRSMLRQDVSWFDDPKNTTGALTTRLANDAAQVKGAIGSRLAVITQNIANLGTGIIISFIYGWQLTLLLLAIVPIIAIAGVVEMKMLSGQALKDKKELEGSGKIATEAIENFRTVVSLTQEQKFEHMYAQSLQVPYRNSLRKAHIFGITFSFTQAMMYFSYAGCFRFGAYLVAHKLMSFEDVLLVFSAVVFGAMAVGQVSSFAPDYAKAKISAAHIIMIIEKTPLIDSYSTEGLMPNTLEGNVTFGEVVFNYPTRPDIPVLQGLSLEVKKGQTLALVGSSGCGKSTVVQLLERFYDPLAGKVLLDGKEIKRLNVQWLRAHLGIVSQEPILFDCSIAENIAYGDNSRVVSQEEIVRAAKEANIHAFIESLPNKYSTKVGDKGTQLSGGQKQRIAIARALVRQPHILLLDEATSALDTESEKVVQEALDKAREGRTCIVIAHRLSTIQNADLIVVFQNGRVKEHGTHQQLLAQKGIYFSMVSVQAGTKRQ
Protocol: MDCKII-Mock and MDCKII-MDR1 cells were given as a gift by Fuji Biomedix Co., Ltd. (Japan) and cultured in DMEM supplemented with 10% FBS and 1% antibiotic (10,000 U/mL penicillin and 10 mg/mL streptomycin). Caco-2 cell line, the human epithelial cell used in this assay, was purchased from the Cell Bank of the Chinese Academy of Sciences (Shanghai, China) and maintained between 30 and 45 passages. It was cultured according to the previous report (Guo et al. [2018]; Xiang et al. [2020]). Briefly, the Caco-2 cells were cultured in DMEM supplemented with 10% FBS, 1% NEAA, and 1% antibiotic (10,000 U/mL penicillin and 10 mg/mL streptomycin). All cells were maintained in a 5% CO2 atmosphere and 90% relative humidity at 37 °C.
For transport studies, the MDCKII-Mock, MDCKII-MDR1, and Caco-2 cells were seeded at a density of 2 × 10^5 cells/mL on Costar Transwell inserts (1.12 cm^2 surface, polycarbonate, 12 mm diameter, 0.4 µm pore size). MDCKII-Mock and MDCKII-MDR1 cells were cultured for 5–7 days in medium, for the first four days, the medium was replaced freshly every two days, and then daily. The Caco-2 cells were cultured for 19–21 days in the medium. For the first 2 weeks, the medium was replaced freshly every two days, and then daily. […] The transepithelial electrical resistance (TEER) of the monolayer cells was measured by Millcell ERS-2 (Millipore, USA), and only the monolayer with TEER exceeding 150 Ω·m^2 (MDCKII-Mock and MDCKII-MDR1 cells) and 400 Ω·m^2 (Caco-2 cells) were used for the transport experiment. The membrane integrity and transport function of MDCKII-Mock, MDCKII-MDR1, and Caco-2 cell monolayers were further verified with Lucifer yellow and Rhodamine-123. The qualified monolayers were used for transport studies.
Before the transport studies, the media in both chambers of the transwell were replaced by warm (37 °C) Hank’s balanced salt solution (HBSS), and then the MDCKII-Mock, MDCKII-MDR1, and Caco-2 cell monolayers were incubated at 37 °C and 5% CO2 for 20 min. […] Our transport studies included absorptive direction transport from the apical (AP) side to the basolateral (BL) side and secretory direction transport from the BL side to the AP side. […] After administration, the transwell plate was placed in a thermostatic oscillator shaking at 60 rpm and 37 °C. At 10, 20, 40 and 60 min, respectively, 50 µL incubating sample aliquot was collected from the receiver chamber and immediately replaced by the same volume of fresh HBSS (37 °C). In addition, the membrane integrity of MDCKII-Mock, MDCKII-MDR1, and Caco-2 cell monolayers were evaluated with Lucifer yellow (30 µM) and TEER value, and the efflux activity of P-gp was validated using a typical P-gp substrate rhodamine-123 (10 µM).
The parameters Papp, RE, and NRE were calculated using the following equation: Papp=(ΔQ/Δt)×[1/(A×C0)]

[4] = Bidirectional transport across MDCKII-Mock cell monolayers; format: in vitro ADME, canine; details: dog, MDCK, MDCKII-Mock, 20 min; for efflux ratio at 20 min: read-out: RE (efflux ratio)
Protocol: as §1

Caco-2 cell monolayer = experiment: Bidirectional transport across Caco-2 cell monolayer; format: in vitro ADME, human; details: Caco-2 monolayer integrity check, Lucifer yellow 30 µM
Protocol: as §1

[5] = tested on: MDCKII-Mock cell monolayers; experiment: Bidirectional transport across MDCKII-Mock cell monolayers; format: in vitro ADME, canine; details: MDCKII-Mock monolayer integrity check, Lucifer yellow 30 µM
Protocol: as §1

[6] = pH 7.4, with verapamil 50 µM, + 50 µM verapamil

Molecule: CC1(C)[C@@H](O[C@H]2O[C@H](C(=O)O)[C@@H](O)[C@H](O)[C@H]2O[C@@H]2O[C@H](C(=O)O)[C@@H](O)[C@H](O)[C@H]2O)CC[C@]2(C)[C@H]3C(=O)C=C4[C@@H]5C[C@@](C)(C(=O)O)CC[C@]5(C)CC[C@@]4(C)[C@]3(C)CC[C@@H]12 [glycyrrhizin]
bioavailability [1]: 4.0%

efflux ratio at 10 µM (P-gp [2]; pH 7.4, with verapamil 50 µM, verapamil present (50 µM)): 4.86
efflux ratio at 10 µM (P-gp [2]; pH 7.4, without verapamil): 15.6
Papp A→B at 20 min (P-gp [3]; dog, MDCK-MDR1, pH 7.4): 0.193 ± 0.0535 ×10⁻⁶ cm/s
Papp B→A at 20 min (P-gp [3]; dog, MDCK-MDR1, pH 7.4): 1.78 ± 0.293 ×10⁻⁶ cm/s
efflux ratio at 20 min (P-gp [3]; dog, MDCK-MDR1, pH 7.4): 9.2
Papp A→B at 20 min [4, 6]: 0.409 ± 0.0686 ×10⁻⁶ cm/s
Papp B→A at 20 min [4, 6]: 0.538 ± 0.0642 ×10⁻⁶ cm/s
efflux ratio at 20 min [4, 6]: 1.32
Papp A→B at 20 min ([4]; pH 7.4, without verapamil): 0.378 ± 0.0314 ×10⁻⁶ cm/s
Papp B→A at 20 min ([4]; pH 7.4, without verapamil): 0.481 ± 0.0998 ×10⁻⁶ cm/s
efflux ratio at 20 min ([4]; pH 7.4, without verapamil): 1.27
Molecule: COC(=O)c1ccccc1-c1c2ccc(=N)cc-2oc2cc(N)ccc12 [Rhodamine 123, rhodamine-123]

Molecule: Lucifer yellow
Papp(AP→BL) (Caco-2 cell monolayer): 0.268 ± 0.0346 × 10^−6 cm/s
Papp(AP→BL) (P-gp [3]; MDCKII-MDR1 monolayer integrity check, Lucifer yellow 30 µM): 0.432 ± 0.0468 × 10^−6 cm/s
Papp(AP→BL) [5]: 0.463 ± 0.0568 × 10^−6 cm/s
